Measured values as given in patent publication US20220323455A1, “FUSED HETEROCYCLIC DERIVATIVES AS ANTIVIRAL AGENTS” (priority 2019, published 2022).

Columns and labels:
[1] = Cytotoxicity in HepG2.117 cells (ATPlite Luminescence Assay); assay type: cell-based; details: human, incubated for 3 days, cell viability, mean value, read-out: TOX-HepG2.117 CC50 (μM, mean value)
Protocol: Cytotoxicity of the compounds was tested using HepG2 or HepG2.117 cells, incubated for 3 days in the presence of compounds. The viability of the cells was assessed using the PERKIN ELMER ATPlite Luminescence Assay System.”

HBV [2] = test: Anti-HBV activity in HepG2.117 cell line (intracellular HBV DNA, real-time PCR); assay type: cell-based; details: Hepatitis B virus, read-out: HBV-AVE-HepG2.117 EC50 (μM, mean value)
Protocol: The anti HBV activity was measured using the HepG2.117 cell line, a stable, inducibly HBV producing cell line, which replicates HBV in the absence of doxicycline (Tet-off system). The HepG2 cell line is available from ATCC® under number HB-8065. Transfection of the HepG2 cell line can be as described in Sun and Nassal 2006 Journal of Hepatology 45 (2006) 636-645 “Stable HepG2- and Huh7-based human hepatoma cell lines for efficient regulated expression of infectious hepatitis B virus”.
For the antiviral assay, HBV replication was induced, followed by a treatment with serially diluted compound in 96-well plates. After 3 days of treatment, the antiviral activity was determined by quantification of intracellular HBV DNA using real-time PCR and an HBV specific primer set and probe.

HBV [3] = test: HBV replication inhibition assay (BDNA assay) in HepG2.2.15 cells; assay type: cell-based, Hepatitis B virus; details: 6 days, encapsidated HBV DNA in supernatant
Summary of the method: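 HepG2.2.15 cells were dosed with serially diluted compound (0.5% DMSO), with compound and medium renewed at day 3. Day-6 supernatants were DNase-treated and proteinase K-lysed, and encapsidated HBV DNA was quantified by branched-DNA assay. Percent inhibition was set against DMSO controls and EC50 obtained by nonlinear fit.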

[4] = 72 h, HepG2.117 cells, 3 days of treatment, intracellular HBV DNA, mean value
[5] = Hepatitis B virus, HepG2.2.15, 144 h

SMILES	EC50 (HBV [3])	also measured
COc1ccc(CN2CCn3nc4c(c3C(F)(F)C2)CN(C(=O)c2ccc(Cl)c(Cl)c2)[C@H](C)C4)cc1 [Example C1, (3,4-Dichlorophenyl){(3R)-11,11-difluoro-9-[(4-methoxyphenyl)methyl]-3-methyl-1,3,4,7,8,9,10,11-octahydro-2H-pyrido[4′,3′:3,4]pyrazolo[1,5-d][1,4]diazepin-2-yl}methanone]		CC50 at 3 days [1]: 15.7 µM; EC50 (HBV [2]; [4]): 0.274 µM
COC(=O)NCC1CCC(F)(F)c2c3c(nn2C1)CCN(C(=O)c1ccc(Cl)c(Cl)c1)C3 (centres unmarked) [Example C16, Methyl {[2-(3,4-dichlorobenzoyl)-11,11-difluoro-1,3,4,7,8,9,10,11-octahydro-2H-pyrido-[4′,3′:3,4]pyrazolo[1,5-a]azepin-8-yl]methyl}carbamate]		CC50 at 3 days [1]: 38.2 µM; EC50 (HBV [2]; [4]): 0.177 µM
C[C@@H]1Cc2nn3c(c2CN1C(=O)c1ccc(Cl)c(Cl)c1)C(F)(F)C(Oc1ccc(C#N)cc1)CCC3 (stereo partly drawn) [Example C7, 4-{[(3R)-2-(3,4-Dichlorobenzoyl)-11,11-difluoro-3-methyl-1,3,4,7,8,9,10,11-octahydro-2H-pyrido[4′,3′:3,4]pyrazolo[1,5-a]azepin-10-yl]oxy}benzonitrile]		CC50 at 3 days [1]: > 50 µM; EC50 (HBV [2]; HepG2.117, 72 h): 2.38 µM
C[C@@H]1Cc2nn3c(c2CN1C(=O)c1ccc(Cl)c(Cl)c1)C(F)(F)CNCC3 [Example C2, (3,4-Dichlorophenyl)[(3R)-11,11-difluoro-3-methyl-1,3,4,7,8,9,10,11-octahydro-2H-pyrido[4′,3′:3,4]pyrazolo[1,5-d][1,4]diazepin-2-yl]methanone]		CC50 at 3 days [1]: > 50 µM; EC50 (HBV [2]; [4]): 0.088 µM
C[C@@H]1Cc2nn3c(c2CN1C(=O)c1ccc(Cl)c(Cl)c1)C(F)(F)CC[C@@H](O)C3 (single isomer, unassigned) [Example C8, (3,4-Dichlorophenyl)[(3R,8*R)-11,11-difluoro-8-hydroxy-3-methyl-1,3,4,7,8,9,10,11-octahydro-2H-pyrido[4′,3′:3,4]pyrazolo[1,5-a]azepin-2-yl]methanone]		CC50 at 3 days [1]: > 50 µM; EC50 (HBV [2]; [4]): 0.019 µM
C[C@@H]1Cc2nn3c(c2CN1C(=O)Nc1ccnc(C(F)F)c1F)C(F)(F)CCC(F)(CO)C3 (single isomer, unassigned) [Example 113, (3R,8S*)—N-(2-(Difluoromethyl)-3-fluoropyridin-4-yl)-8,11,11-trifluoro-8-(hydroxymethyl)-3-methyl-3,4,8,9,10,11-hexahydro-1H-pyrido[4′,3′:3,4]pyrazolo[1,5-a]azepine-2(7H)-carboxamide]	154 nM	
N#Cc1cc(NC(=O)N2CCc3nn4c(c3C2)C(F)(F)CC(O)CC4)ccc1F (single isomer, unassigned) [Example 141, (S*)—N-(3-Cyano-4-fluorophenyl)-11,11-difluoro-9-hydroxy-3,4,8,9,10,11-hexahydro-1H-pyrido[4′,3′:3,4]pyrazolo[1,5-a]azepine-2(7H)-carboxamide]	16 nM	
C[C@@H]1Cc2nn3c(c2CN1C(=O)Nc1ccnc(Br)c1F)C(F)=CC(O)CC3 (single isomer, unassigned) [Example 124, (3R,9S*)—N-(2-Bromo-3-fluoropyridin-4-yl)-11-fluoro-9-hydroxy-3-methyl-3,4,8,9-tetrahydro-1H-pyrido[4′,3:3,4]pyrazolo[1,5-a]azepine-2(7H)-carboxamide]	26 nM	
C[C@@H]1Cc2nn3c(c2CN1C(=O)Nc1ccnc(Br)c1F)C(F)(F)CC(O)CC3 (single isomer, unassigned) [Example 117, (3R,9S*)—N-(2-Bromo-3-fluoropyridin-4-yl)-11,11-difluoro-9-hydroxyl-3-methyl-3,4,8,9,10,11-hexahydro-1H-pyrido[4′,3′:3,4]pyrazolo[1,5-a]azepine-2(7H)-carboxamide]	18 nM	
CCC1(O)CCC(F)(F)c2c3c(nn2C1)CCN(C(=O)Nc1ccc(F)c(C#N)c1)C3 (single isomer, unassigned) [Example 62, (R*)—N-(3-Cyano-4-fluorophenyl)-8-ethyl-11,11-difluoro-8-hydroxy-3,4,8,9,10,11-hexahydro-1H-pyrido[4′,3′:3,4]pyrazolo[1,5-a]azepine-2(7H)-carboxamide]	42 nM	
N#Cc1cc(NC(=O)N2CCc3nn4c(c3C2)C(F)(F)CCC(CO)C4)ccc1F (single isomer, unassigned) [Example 23, (R*)—N-(3-Cyano-4-fluorophenyl)-11,11-difluoro-8-(hydroxymethyl)-3,4,8,9,10,11-hexahydro-1H-pyrido[4′,3′:3,4]pyrazolo[1,5-a]azepine-2(7H)-carboxamide]	18 nM	
O=C(Nc1ccnc(C(F)F)c1F)N1CCc2nn3c(c2C1)C(F)(F)CCC(O)(COCC(F)F)C3 (single isomer, unassigned) [Example 36, (S*)-8-((2,2-Difluoroethoxy)methyl)-N-(2-(difluoromethyl)-3-fluoropyridin-4-yl)-11,11-difluoro-8-hydroxy-3,4,8,9,10,11-hexahydro-1H-pyrido[4′,3′:3,4]pyrazolo[1,5-a]azepine-2(7H)-carboxamide]	39 nM	
O=C(Nc1ccnc(C(F)F)c1F)N1CCc2nn3c(c2C1)C(F)(F)CC(O)CC3 (single isomer, unassigned) [Example 139, (R*)—N-(2-(Difluoromethyl)-3-fluoropyridin-4-yl)-11,11-difluoro-9-hydroxy-3,4,8,9,10,11-hexahydro-1H-pyrido[4′,3′:3,4]pyrazolo[1,5-a]azepine-2(7H)-carboxamide]	21 nM	
C[C@@H]1Cc2nn3c(c2CN1C(=O)Nc1ccnc(Br)c1F)C(F)(F)CCC(C(C)(C)O)C3 (single isomer, unassigned) [Example 104, (3R,8R*)—N-(2-Bromo-3-fluoropyridin-4-yl)-11,11-difluoro-8-(2-hydroxypropan-2-yl)-3-methyl-3,4,8,9,10,11-hexahydro-1H-pyrido[4′,3′:3,4]pyrazolo[1,5-a]azepine-2(7H)-carboxamide]	36 nM	
C[C@@H]1Cc2nn3c(c2CN1C(=O)Nc1ccc(F)c(C#N)c1)C(F)(F)CCC(CO)C3 (single isomer, unassigned) [Example 79, (3R,8R*)—N-(3-Cyano-4-fluorophenyl)-11,11-difluoro-8-(hydroxymethyl)-3-methyl-3,4,8,9,10,11-hexahydro-1H-pyrido[4′,3′:3,4]pyrazolo[1,5-a]azepine-2(7H)-carboxamide]		EC50 (HBV [3]; [5]): 1 nM
COC(=O)NCC1CCC(F)(F)c2c3c(nn2C1)C[C@@H](C)N(C(=O)Nc1ccnc(Br)c1F)C3 (single isomer, unassigned) [Example 109, Methyl (((3R,8S*)-2-((2-bromo-3-fluoropyridin-4-yl)carbamoyl)-11,11-difluoro-3-methyl-2,3,4,7,8,9,10,11-octahydro-1H-pyrido[4′,3′:3,4]pyrazolo[1,5-a]azepin-8-yl)methyl)carbamate]	32 nM	
C[C@@H]1Cc2nn3c(c2CN1C(=O)Nc1ccc(F)c(C#N)c1)C(F)(F)CC[C@H](CO)C3 (relative stereo) [Example 75]		EC50 (HBV [3]; [5]): 5 nM
O=C(Nc1ccnc(Br)c1F)N1CCc2nn3c(c2C1)C(F)(F)CCC(O)(COCC(F)F)C3 (single isomer, unassigned) [Example 35, (S*)—N-(2-Bromo-3-fluoropyridin-4-yl)-8-((2,2-difluoroethoxy)methyl)-11,11-difluoro-8-hydroxy-3,4,8,9,10,11-hexahydro-1H-pyrido[4′,3′:3,4]pyrazolo[1,5-a]azepine-2(7H)-carboxamide]	98 nM	
C[C@@H]1Cc2nn3c(c2CN1C(=O)Nc1ccnc(Br)c1F)C(F)(F)CCC(CO)C3 (single isomer, unassigned) [Example 81, (3R,8R*)—N-(2-Bromo-3-fluoropyridin-4-yl)-11,11-difluoro-8-(hydroxymethyl)-3-methyl-3,4,8,9,10,11-hexahydro-1H-pyrido[4′,3′:3,4]pyrazolo[1,5-a]azepine-2(7H)-carboxamide]	2 nM	
COC(=O)NCC1CCC(F)(F)c2c3c(nn2C1)C[C@@H](C)N(C(=O)Nc1ccnc(C(F)F)c1F)C3 (single isomer, unassigned) [Example 110, Methyl (((3R,8S*)-2-((2-(difluoromethyl)-3-fluoropyridin-4-yl)carbamoyl)-11,11-difluoro-3-methyl-2,3,4,7,8,9,10,11-octahydro-1H-pyrido[4′,3′:3,4]pyrazolo[1,5-a]azepin-8-yl)methyl)carbamate]	18 nM	
C[C@@H]1Cc2nn3c(c2CN1C(=O)Nc1ccnc(C(F)F)c1F)C(F)(F)CCC(CO)C3 (single isomer, unassigned) [Example 78, (3R,8S*)—N-(2-(Difluoromethyl)-3-fluoropyridin-4-yl)-11,11-difluoro-8-(hydroxymethyl)-3-methyl-3,4,8,9,10,11-hexahydro-1H-pyrido[4′,3′:3,4]pyrazolo[1,5-a]azepine-2(7H)-carboxamide]	30 nM	
